From patent US20040055024A1, “Conditional mutants of influenza virus M2 protein” (Medical Research Council, priority 1998, published 2004)

How the values were obtained:
[1] = tested on: murine MEL cells; format: cell-based, mouse
[2] = tested on: T-lymphocyte development (thymus, spleen); conditions: mouse, in vivo
[3] = tested on: thymic rudiments; assay: Foetal thymic organ culture of transgenic embryos in the presence of rimantadine; format: cell-based, mouse; conditions: thymic lobes of 15 day embryos, 7 to 10 days culture with rimantadine, FACS
Description: Opin. Immunol. 6:293-297.
Embryo sacs are removed from 15-day pregnant mice and the embryos released by cutting the umbilical cord. The embryos are stored on ice; non-embryo tissue is discarded. Any abnormal embryos, or asynchronous embryos as judged by size, are also discarded at this stage.
Foetal thymic lobes are dissected from the embryo and cultured on Costar filters (Coming) on RPMI medium. The filters are transferred to a new well of medium every day during the experiment.
At between 7 and 10 days, the thymic lobes are harvested, transferred to an eppendorf tube containing 200 μl medium, and the cells separated by teasing out mechanically. The cells are then analysed by FACS as described above.
In a second series of experiments, the thymic rudiments are cultured in the presence of rimantadine, and the cells analysed by FACS as described above.

## CC(N)C12CC3CC(CC(C3)C1)C2 (stereo not shown) [Rimantadine]
[1]
  cell kinetics after induction: preceded by two cell doublings before terminal differentiation and growth arrest
  cloning of M2(H37A) mutant in MEL cells: the mutant can be cloned
[2]
  rescue of the lack of T-cells by administration of rimantadine: not rescuable
[3]
  rescue of T-cell production: able to rescue T-cell production in the thymic rudiments
